{"source": "patent US8193228B2", "about": "“Substituted imidazole as bombesin receptor subtype-3 modulators” (Merck Sharp & Dohme Corp., priority 2006, dated 2012)"}
{"target": "T1, human BRS-3 (Homo sapiens, UniProt P32247)", "T1 construct": "expressed in transfected cells", "T1 sequence (P32247 1-399)": "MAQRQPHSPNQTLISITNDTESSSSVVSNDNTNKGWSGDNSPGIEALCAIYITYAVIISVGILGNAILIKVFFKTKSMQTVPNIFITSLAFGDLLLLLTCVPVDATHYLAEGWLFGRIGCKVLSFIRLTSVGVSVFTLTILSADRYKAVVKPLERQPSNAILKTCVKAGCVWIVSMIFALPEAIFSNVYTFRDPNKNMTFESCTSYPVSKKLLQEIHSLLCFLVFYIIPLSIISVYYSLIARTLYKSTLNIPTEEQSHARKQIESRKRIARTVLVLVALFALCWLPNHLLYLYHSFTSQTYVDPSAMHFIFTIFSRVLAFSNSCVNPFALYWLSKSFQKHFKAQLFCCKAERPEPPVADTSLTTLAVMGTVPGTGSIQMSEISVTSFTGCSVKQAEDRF", "assay": "BRS-3 receptor binding assay (radioligand filtration)", "settings": "read-out: BRS-3 binding IC50; selected compounds", "protocol": "(§1) Dissociated cells were collected by centrifuging at 1000 rpm for 10 minutes. Cell pellets were resuspended and homogenized at 4° C. using a Polytron homogenizer (setting 40, 20 stokes) in approximately 10 mL membrane preparation buffer (10 mM Tris pH 7.4, 0.01 mM Pefabloc, 10 μM phosphoramidon and 40 μg/mL Bacitracin) per T175 flask. After centrifugation at 2200 rpm (1000×g) for 10 minutes at 4° C., the supernatant was transferred to a clean centrifuge tube and spun at 18,000 rpm (38,742×g) for 15 minutes. at 4° C.\n(§2) The filters were washed five times with ice-cold washing buffer (1×PBS without Mg^++ and Ca^++). The radioactivity was determined by adding 30 μl of microscintillant/well after each plate was dried at room temperature overnight or placed at 50° C. for 1 hr.\n(§3) The radioligand, [^3H]-1-{4-[(4,5-difluoro-2-hydroxycarbonylphenyl)phenyl]}-2-(4-cyclohexylmethyl-1H-imidazol-2-yl)ethane, was used for binding to receptor membranes generated with BRS3 from other species and was also utilized for the human receptor. […] After incubation for 1-2 hours at room temperature, membrane bound [^3H]-biphenyl was separated from free radiologand by filtering through GF/C filters presoaked in 1% PEI solution. The filters were washed five times with ice-cold washing buffer (50 mM Tris pH 7.4, 10 mM MgCl2, 2.5 mM EDTA and 0.02% Triton X-100). The radioactivity was determined by adding 30 μl of microscintillant/well after each plate was dried at room temperature overnight or placed at 50° C. for 1 hr.\n(§4) A Packard Top Count was used to read the filter plates. The data in % inhibition of binding was plotted vs. the log molar concentration of receptor ligand (compound). The IC50 was reported as the inflection point of the resulting sigmoidal curve.", "units": {"IC50": "nM"}}
{"smiles": "O[C@@](Cc1nc(CC2(C(F)(F)F)CC2)c[nH]1)(c1ccc(-n2cccn2)cc1)C(F)(F)F", "note": "[Example 31a, (2S)-1,1,1-trifluoro-2-[4-(1H-pyrazol-1-yl)phenyl]-3-(4-{[1-(trifluoromethyl)cyclopropyl]methyl}-1H-imidazol-2-yl)propan-2-ol]", "IC50": 36}
{"target": "T1, human BRS-3", "assay": "BRS-3 receptor binding assay (radioligand filtration)", "settings": "selected compounds; read-out: BRS-3 binding IC50", "protocol": "as §1, §2, §3, §4", "units": {"IC50": "nM"}}
{"smiles": "OC(Cc1nc(CC2(C(F)(F)F)CC2)c[nH]1)(c1ccc(-c2ccc(F)cn2)cc1)C(F)(F)F", "note": "(single isomer, unassigned) [Example 55, 1,1,1-trifluoro-2-[4-(5-fluoropyridin-2-yl)phenyl]-3-(4-{[1-(trifluoromethyl)cyclopropyl]methyl}-1H-imidazol-2-yl)propan-2-ol]", "IC50": 56}
{"smiles": "OC(Cc1nc(CC2(C(F)(F)F)CC2)c[nH]1)(c1ccc(-n2cccn2)cc1)C(F)F", "note": "(single isomer, unassigned) [Example 72, 1,1-difluoro-2-[4-(1H-pyrazol-1-yl)phenyl]-3-(4-{[1-(trifluoro-methyl)cyclopropyl]methyl}-1H-imidazol-2-yl)propan-2-ol]", "IC50": 12}
{"smiles": "CC(C)(C)Cc1c[nH]c(CC(O)(c2ccc(-c3ccc(F)cn3)cc2)C(F)(F)F)n1", "note": "(stereo not drawn) [Example 1, 3-[4-(2,2-dimethylpropyl)-1H-imidazol-2-yl]-1,1,1-trifluoro-2-[4-(5-fluoropyridin-2-yl)phenyl]propan-2-ol]", "IC50": 18}
{"smiles": "CC(C)(C)Cc1c[nH]c(CC(C)(O)c2ccc(-c3ccc(F)cn3)cc2)n1", "note": "(stereo not drawn) [Example 4, 1-[4-(2,2-dimethylpropyl)-1H-imidazol-2-yl]-2-[4-(5-fluoropyridin-2-yl)phenyl]propan-2-ol]", "IC50": 19}
{"smiles": "CC(C)(C)Cc1c[nH]c(CC(O)(c2ccc(-c3ccc(F)cn3)cc2)C(F)F)n1", "note": "(stereo not drawn) [Example 40, 3-[4-(2,2-dimethylpropyl)-1H-imidazol-2-yl]-1,1-difluoro-2-[4-(5-fluoropyridin-2-yl)phenyl]propan-2-ol]", "IC50": 15}
{"smiles": "OC(Cc1nc(CC2(C(F)(F)F)CC2)c[nH]1)(c1ccc(-c2ccc(F)cn2)cc1)C(F)F", "note": "(stereo not drawn) [Example 45, 1,1-difluoro-2-[4-(5-fluoropyridin-2-yl)phenyl]-3-(4-{[1-(trifluoromethyl)cyclopropyl]methyl}-1H-imidazol-2-yl)propan-2-ol]", "IC50": 71}
{"smiles": "CC(O)(Cc1nc(CC2(C(F)(F)F)CC2)c[nH]1)c1ccc(-c2ccc(F)cn2)cc1", "note": "(stereo not drawn) [Example 49, 2-[4-(5-fluoropyridin-2-yl)phenyl]-1-(4-{[1-(trifluoromethyl)cyclopropyl]methyl}-1H-imidazol-2-yl)propan-2-ol]", "IC50": 54}
{"smiles": "CC(O)(Cc1nc(CC2(C(F)(F)F)CC2)c[nH]1)c1ccc(-n2cccn2)cc1", "note": "(stereo not drawn) [Example 52, 2-[4-(1H-pyrazol-1-yl)phenyl]-1-(4-{[1-(trifluoromethyl)cyclopropyl]methyl}-1H-imidazol-2-yl)propan-2-ol]", "IC50": 19}
{"smiles": "CC(C)(C)Cc1c[nH]c(CC(C)(O)c2ccc(-n3cccn3)cc2)n1", "note": "(stereo not drawn) [Example 60, 1-[4-(2,2-dimethylpropyl)-1H-imidazol-2-yl]-2-[4-(1H-pyrazol-1-yl)phenyl]propan-2-ol]", "IC50": 23}
{"smiles": "CC(C)(C)Cc1c[nH]c(CC(O)(c2ccc(-n3cccn3)cc2)C(F)F)n1", "note": "(stereo not drawn) [Example 75, 3-[4-(2,2-dimethylpropyl)-1H-imidazol-2-yl]-1,1-difluoro-2-[4-(1H-pyrazol-1-yl)phenyl]propan-2-ol]", "IC50": 11}
{"smiles": "CC(C)(C)Cc1c[nH]c(CC(O)(c2ccc(-n3cccn3)cc2)C(F)(F)F)n1", "note": "(stereo not drawn) [Example 78, 3-[4-(2,2-dimethylpropyl)-1H-imidazol-2-yl]-1,1,1-trifluoro-2-[4-(1H-pyrazol-1-yl)phenyl]propan-2-ol]", "IC50": 17}
